Test in all cases: NCI anticancer screen, dose series, 48 h
The test system of assay [1] is SK-MEL-2.
The subject of assay [2] is RPMI-8226.
For assay [3], the system named is A549.
In assay [4] the test system is OVCAR-5.
In assay [5] the test system is UO-31.
Assay [6] relates to A498.
For assay [7], the system named is UACC-257.
Assay [8] concerns NCI-H460.
In assay [9] the test system is M19-MEL.
In assay [10] the test system is LOX IMVI.
Assay [11] deals with NCI-H23.
The test system of assay [12] is Malme-3M.
The test system of assay [13] is HCT-15.
The subject of assay [14] is HT-29.
For assay [15], the system named is IGROV-1.
In assay [16] the test system is SF-295.
Assay [17] relates to HCC 2998.
Assay [18] deals with NCI/ADR-RES.
For assay [19], the system named is MDA-MB-435.
Assay [20] relates to MDA-MB-231.

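Assay format: 96-well plates, 48-hour exposure. At the GI50, growth is halved.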 The source made the active and inactive calls. Rule as the data show it: active = GI50 up to about 1.1 µM and inactive = higher.

As for `CCN(CC)CCNc1ccc(C)c2sc3ccc(O)cc3c(=O)c12`, the GI50 in assay [1] is 1.79 µM (inactive); in assay [2], 1.05 µM (active); in assay [3], < 0.0431 µM (active); in assay [4], 4.1 µM (inactive); in assay [5], 1.14 µM (inactive); in assay [6], 1.33 µM (inactive). The GI50 in assay [7] is 1.55 µM (inactive); in assay [8], < 0.0128 µM (active); in assay [9], 1.1 µM (active); in [10] it was 0.711 µM (active); in [11] it was 1.2 µM (inactive); in assay [12], 1.15 µM (inactive). In addition, the GI50 in [13] was 0.923 µM; in assay [14] it was 1.58 µM (inactive); in [15], 1.23 µM (inactive); in assay [16], 0.27 µM (active); in assay [17] it was 1.36 µM (inactive).
Regarding `Cc1cccc(NC(=O)C(=O)C2C(=O)NC(=O)NC2=O)c1C`, the GI50 in assay [1], in assay [2], in [3], in assay [4], in [5] and in [6] was > 100 µM (inactive) throughout. Further, the GI50 in [7], in assay [8], in assay [9], in [10], in assay [11] and in [12] was > 100 µM (inactive) each time. The GI50 was > 100 µM in assay [13]; > 100 µM (inactive) in assay [14]; > 100 µM (inactive) in assay [15]; > 100 µM (inactive) in [16]; > 100 µM (inactive) in [17].
Consider `Cc1ccc(C2[C@H]3C(=O)N(c4ccc(Cc5ccc(N6C(=O)[C@@H]7ON(c8ccccc8)C(c8ccc(C)cc8)[C@@H]7C6=O)cc5)cc4)C(=O)[C@H]3ON2c2ccccc2)cc1` (stereo partly specified), for which the GI50 in assay [1], in assay [2], in assay [3], in assay [4], in assay [5] and in [6] was > 100 µM (inactive) throughout. Besides, the GI50 in assay [7], in assay [8], in [9], in assay [10], in assay [11] and in assay [12] was > 100 µM (inactive) each time. The GI50 in assay [13] is > 100 µM; in assay [14] it was > 100 µM (inactive); in [15] it was > 100 µM (inactive); in [16], > 100 µM (inactive); in assay [17], > 100 µM (inactive).
On to `O=C(Nc1ccccc1SC(/C=C/NNC1=NN=C(c2ccccc2)C(c2ccccc2)N1)c1ccccc1)c1ccc(Cl)cc1Cl` (stereo unspecified), for which the GI50 is 20.9 µM (inactive) in assay [1]; 58.6 µM (inactive) in assay [2]; 38.9 µM (inactive) in [3]; 44.8 µM (inactive) in assay [4]; 34 µM (inactive) in assay [5]; 43.5 µM (inactive) in assay [6]. Also, the GI50 in assay [7] was > 100 µM (inactive); in assay [8], 42.7 µM (inactive); in assay [9], 44.3 µM (inactive); in assay [10], 36.2 µM (inactive); in assay [11], 22.8 µM (inactive); in [12], > 100 µM (inactive). In addition, the GI50 was 36 µM in assay [13]; > 100 µM (inactive) in assay [14]; 50 µM (inactive) in assay [15]; 25.6 µM (inactive) in [16]; 47 µM (inactive) in [17].
With `c1cc2c(ncc3cscc32)s1`, the GI50 in assay [1] is > 100 µM (inactive); in assay [2] it was > 100 µM (inactive); in assay [3], > 100 µM (inactive); in assay [4] it was > 89.5 µM (inactive); in assay [5], > 70.6 µM (inactive); in [6] it was 51.1 µM (inactive). For the same compound, the GI50 in [18] was > 100 µM (inactive); in [7], > 100 µM (inactive); in assay [8], > 100 µM (inactive); in assay [9] it was > 100 µM (inactive); in assay [10], > 49.5 µM (inactive); in assay [11], > 68.4 µM (inactive). The GI50 was > 100 µM (inactive) in [12]; > 100 µM in [13]; > 100 µM (inactive) in [19]; > 100 µM (inactive) in assay [20]; > 100 µM (inactive) in assay [14]; > 31.6 µM (inactive) in assay [15]. The GI50 in assay [16] and in [17] was > 100 µM (inactive) throughout.
Regarding `CCOC(=O)CCC(NC(=O)c1ccc(NCc2ccc3nc(-c4ccccc4)c(Cl)nc3c2)cc1)C(=O)OCC` (stereo unspecified), the GI50 was 10.6 µM (inactive) in [1]; 18.2 µM (inactive) in assay [2]; 47.8 µM (inactive) in assay [3]; > 100 µM (inactive) in assay [4]; 22.9 µM (inactive) in [5]; 24.5 µM (inactive) in [6]. The GI50 in assay [8] was 27.7 µM (inactive); in assay [9], 17.4 µM (inactive); in assay [10] it was 26.1 µM (inactive); in assay [11], 79.8 µM (inactive); in [12] it was 13 µM (inactive); in assay [13] it was 64.1 µM. Besides, the GI50 in assay [14] is > 100 µM (inactive); in [15], 27.9 µM (inactive); in [16] it was 76.2 µM (inactive); in assay [17] it was 92.3 µM (inactive).
In the case of `NC(=O)C(=O)N/N=C(\CC1(O)C(=O)Nc2ccccc21)c1ccc2ccccc2c1` (stereo unspecified), the GI50 in [1] was 22.1 µM (inactive); in assay [2], 34.4 µM (inactive); in assay [3], 20.7 µM (inactive); in assay [4], > 100 µM (inactive); in assay [5], 40.1 µM (inactive); in assay [6] it was 17.9 µM (inactive). The GI50 in assay [7] was 28.5 µM (inactive); in assay [8], 34 µM (inactive); in assay [9] it was 25.2 µM (inactive); in [10], 30.3 µM (inactive); in assay [11] it was 29.6 µM (inactive); in assay [12], 61.7 µM (inactive). Further, the GI50 was 24.5 µM in assay [13]; 34.4 µM (inactive) in assay [14]; 40.5 µM (inactive) in assay [15]; 37.9 µM (inactive) in assay [16]; 41.5 µM (inactive) in assay [17].
`NC(=O)c1[nH]nc(C2OC(CO)C(O)C2O)c1O` (stereo unspecified): the GI50 in [1] is 84.7 µM (inactive); in assay [2] it was 0.682 µM (active); in assay [3] it was 0.6 µM (active); in assay [4], 183 µM (inactive); in [5], 4.01 µM (inactive); in assay [6], 60.5 µM (inactive). In addition, the GI50 in assay [18] was 2.68 µM (inactive); in [7], 966 µM (inactive); in [8], 0.573 µM (active); in [9], 13.2 µM (inactive); in assay [10], 0.504 µM (active); in [11], 9.59 µM (inactive). The GI50 in assay [12] is 368 µM (inactive); in assay [13] it was 0.5 µM; in [19] it was 15.7 µM (inactive); in assay [20], 8.59 µM (inactive); in assay [14] it was 0.851 µM (active); in assay [15], 0.776 µM (active). In addition, the GI50 in assay [16] was 0.851 µM (active); in assay [17], 42.5 µM (inactive).

The record behind these values is ChEMBL document CHEMBL1201862, “PubChem BioAssay data set” (2004).
